For orientation: pIC50 means the IC50 on a negative log10 scale, so that one unit is a factor of ten. A lower pIC50 goes with a high IC50.

pIC50: −log10 of the molar value.

The target in the test is Eukaryotic translation initiation factor 4E (Homo sapiens, UniProt P06730). Kind of test: Fluorescence Polarization Assay. How it is done: eIF4E protein was pre-incubated with EDA-m7GDP-ATTO-550 in FPB at 2xconcentrations for 5 minutes prior to the addition of compounds. Compounds (100x) were prepared using 3-fold serial dilutions in 100% DMSO, and subsequently diluted 1:50 in FPB to produce 2x stocks. 50 ul of 2x eIF4E/EDA-m7GDP-ATTO-550 were transferred to the wells of a 96-well half-area black flat bottom polystyrene plate. 50 ul of 2x test compound were added, and binding reactions were allowed to equilibrate for 30 minutes at room temperature while protected from light. The fluorescent polarization signal was detected using a Victor 2 multi-label counter (Perkin Elmer) and the concentration necessary to achieve inhibition of eIF4E/EDA-m7GDP-ATTO-550 binding by 50% (IC50) was calculated using data from an 8-point compound dilution series.
Eukaryotic translation initiation factor 4E, sequence (P06730 whole entry): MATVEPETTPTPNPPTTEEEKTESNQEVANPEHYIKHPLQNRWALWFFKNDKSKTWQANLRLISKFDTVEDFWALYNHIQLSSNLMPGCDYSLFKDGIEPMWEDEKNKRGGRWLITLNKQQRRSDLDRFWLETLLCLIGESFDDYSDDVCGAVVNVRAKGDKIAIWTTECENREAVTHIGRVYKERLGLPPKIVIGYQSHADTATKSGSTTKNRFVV
(In general: Fluorescence polarisation rises when a labelled molecule tumbles more slowly, as on binding a larger partner.)
`Cc1nc2cnc(N(C)C3CCN(CC(F)F)CC3)c(C#N)c2c(=O)n1CCOc1ccc(Cl)cc1-c1ccnc2c(C(=O)O)csc12` [US11286268, Compound 1318] showed a pIC50 of 7.46. Compound `Cc1nc2cnc(N3CC4(C3)CN(C3(C)CC(F)(F)C3)C4)c(C#N)c2c(=O)n1CCOc1ccc(Cl)cc1-c1ccnc2c(C(=O)O)csc12` [US11286268, Compound 1435] showed a pIC50 of 7.58. For the compound `Cc1nc2cnc(N3CC4(C3)CN(C3CCC3)C4)c(C#N)c2c(=O)n1CCOc1ccc(Cl)cc1-c1ccnc2c(C(=O)O)csc12` [US11286268, Compound 1437], the pIC50 is 7.43. In turn, `Cc1nc2cnc(N3CCN(C4CC4)C(C(F)F)C3)c(C#N)c2c(=O)n1CCOc1ccc(Cl)cc1-c1ccnc2c(C(=O)O)csc12` (stereo not drawn) [US11286268, Compound 1439] showed a pIC50 of 7.89.

`Cc1nc2cnc(C(=O)C3CCN(CC(F)F)CC3)c(C#N)c2c(=O)n1CCOc1ccc(Cl)cc1-c1ccnc2c(C(=O)O)csc12` [US11286268, Compound 1440] had a pIC50 of 7.16. `Cc1nc2cnc(N(C)CC3CCN(CC(F)F)CC3)c(C#N)c2c(=O)n1CC#Cc1ccc(Cl)cc1-c1ccnc2c(C(=O)O)csc12` [US11286268, Compound 1541]: the negative logarithm of the IC50 (pIC50) is 7.97. For `Cc1nc2cnc(N(C)C3CCN(CC(C)(F)F)CC3)c(C#N)c2c(=O)n1CC#Cc1ccc(Cl)cc1-c1ccnc2c(C(=O)NS(=O)(=O)C(F)(F)F)csc12` [US11286268, Compound 1603], the pIC50 is 8.67. Consider `CCN(c1ncc2nc(C)n(CC#Cc3ccc(Cl)cc3-c3ccnc4c(C(=O)NS(=O)(=O)C5COC5)csc34)c(=O)c2c1C#N)C1CCN(CC(F)(F)C(F)F)CC1` [US11286268, Compound 1608], for which the pIC50 was 8.18. With `CCN(c1ncc2nc(C)n(CC#Cc3ccc(Cl)cc3-c3ccnc4c(C(=O)NS(=O)(=O)c5ccccn5)csc34)c(=O)c2c1C#N)C1CCN(CC(F)(F)C(F)F)CC1` [US11286268, Compound 1609], the pIC50 is 8.31. In turn, `Cc1nc2cnc(NC3CC[N+](C)(CC(F)F)CC3)c(C#N)c2c(=O)n1CC#Cc1ccc(Cl)cc1-c1ccnc2c(C(=O)O)csc12` (stereo not drawn) [US11286268, Compound 1663] gave a negative-log IC50 (pIC50) of 7.85. Next, `CCN(c1ncc2nc(C)n(CC#Cc3ccc(Cl)cc3-c3ccnc4c(C(=O)NS(=O)(=O)CF)csc34)c(=O)c2c1C#N)C1CCN(C2COC2)CC1` [US11286268, Compound 1743]: 8.16. Take `Cc1nc2cc(C(F)(F)F)cc(C#N)c2c(=O)n1CCOc1ccc(Cl)cc1-c1cc(C(C)C)nc2c(C(=O)O)csc12` [US11286268, Compound 1902]: the pIC50 is 7.07. The value for `N#Cc1ccc(OCCn2cnc3cnc(C#N)cc3c2=O)c(-c2cccc(C(=O)O)c2)c1` [US11286268, Compound 2026] was 6.18.

The values are drawn from BindingDB's records for patent US11286268 (eFFECTOR Therapeutics, Inc., 2022).
